Data set [1] concerns Primary AID-expressing B-cells. Put plainly: Cell survival analysis. In kind it is cell-based. The following applies: 100 nM versus vehicle (DMSO). As for the experimental part: FIG. 27 depicts a graph of cell survival analysis of primary AID-expressing B-cells treated with C-1523-1AD4 (100 nM) versus vehicle (DMSO).
Primary AID-expressing B-cells were sensitive to C-1523-1AD4 (FIG. 27).

Data set [2] has as its system Primary mouse B cells (WT). Put plainly: Micronuclei assay. In kind it is cell-based. The conditions noted are these: all genotypes tested (WT, AID−/−, and p53−/−), 5 μg/mL, 3 d.
For a further data set, the system named is MEC-1 cells. Put plainly: Micronuclei assay. Type of data set: cell-based, human. The conditions noted are these: cyclophosphamide treatment.
Data set [3] concerns Primary splenic B-cells from AID-expressing mice. Put plainly: Cell viability of primary splenic B-cells, AID-expressing versus AID-negative mice. Type of data set: cell-based. The conditions noted are these: compared to primary splenic B-cells in AID-negative mice. The source says: Primary splenic B-cells from AID-expressing mice were exposed to C-1523-1a and the BTK inhibitor ibrutinib and cell viability was compared to primary splenic B-cells in AID-negative mice (FIG. 9).

The subject of a further data set is primary B-cells (AID+). Put plainly: Dose response in primary B-cells (AID+). In kind it is cell-based. The following applies: FIG. 10. As for the experimental part: Dose responses for C-1523 (blue) and C-1523-1a (red) in primary B-cells (AID+) was determined (FIG. 10).
Data set [4] deals with non-Hodgkin's lymphoma model. The experiment in a line: Non-Hodgkin's lymphoma model. The conditions noted are these: in vivo. On the procedure: (§1) The effects of C-1523 have been tested in vitro in cultured cancer cells and in vivo with human cell samples. Preclinical pharmacokinetic analyses were conducted to determine the fate of the compound as it is administered.
Data set [5] is described as follows: Plasma concentration after administration of 2, 10, or 20 milligrams per kilogram. Type of data set: in vivo, Sprague Dawley rats. The conditions noted are these: Sprague Dawley, rat, 20 mg/kg dosing. As for the experimental part: Pharmacokinetic measurements of DIDS, C-1523, and C-1523-1a following oral and intravenous administration to Sprague Dawly rats were made (FIGS. 4-6) and the plasma concentration of C-1523-1a at t=15 min, t=30 min, t=1 hr, t=2 hr, t=8 hr, and t=24 hr following administration of 2, 10, or 20 milligrams per kilogram to Sprague Dawley rats was determined (FIG. 7).
as §1

Data set [6] in a line: Pharmacokinetics after single intravenous injection or oral gavage. Type of data set: in vivo, Sprague Dawley rats. As for the experimental part: C-1523-1A was formulated in PBS with 5% DMSO and given via single intravenous injection (1 milligram per kilogram) or by oral gavage to Sprague Dawley rats (2 milligrams per kilogram). Plasma concentrations were measure by mass spectrometry at t=15 min, t=30 min, t=1 hr, t=2 hr, t=4 hr, and t=8 hr for the intravenous cohort and at t=1 hr, t-2 hr, t-3 hr, t-4 hr, t-5 hr, t-6 hr. […] Oral availability is 2-3% (FIG. 3).

For data set [7], the system named is AID-expressing mouse B-lymphocytes.
Data set [8] relates to primary splenic B-cells from WT (AID-expressing) mice. The following applies: Ishida et al., 2009; Lamont et al., 2013; cited from earlier work.

Turning to “disodium (E)-((5- acetamido-2-(2-(N- isobutyrylsulfamoyl)-4- (3-isopropylthioureido) styryl)phenyl)sulfonyl) (isobutyryl)amide [C-1523-1AD4]”, in data set [1], the “sensitivity (cell survival)” value was “sensitive”.

In the case of `O=P1(N(CCCl)CCCl)NCCCO1` (stereo not drawn) [cyclophosphamide, reference compound], the micronuclei entry in data set [2] was “approximately 9%”. In addition, the “micronuclei relative to primary cells” value in the data set on MEC-1 cells is “approximately half as much micronuclei as primary cells”.

Turning to `CC(=O)Nc1ccc(/C=C/c2ccc(NC(=S)NC(C)C)cc2S(N)(=O)=O)c(S(N)(=O)=O)c1` [C-1523-1a, (E)-N-(4-(4-(3-isopropylthioureido)-2-sulfamoylstyryl)-3-sulfamoylphenyl)acetamide], the “potency and selectivity for AID+ cells (cell viability)” value in [3] is “surprisingly potent and selective for AID+ cells”. Further, the acute toxicity entry (in vivo) is reported as “almost no acute toxicity”. Further, the “tolerance to prolonged drug exposure” value (single and multiple dose) is on record as “excellent tolerance”. For the same compound, the “concentration below which response is consistent” value in the data set on primary B-cells (AID+) was “below 10 nM”. For the same compound, the tumors entry in data set [4] is on record as “successfully reduced tumors”. Moreover, the half-life in data set [5] is roughly 6 h; in data set [6] (Sprague Dawley, rat, plasma, single intravenous injection 1 milligram per kilogram, PBS with 5% DMSO) it was 1.5 h. The compound also yielded an AUC in data set [6] (Sprague Dawley, rat, plasma, single intravenous injection 1 milligram per kilogram) of 971 ng·h/mL. The Vd in data set [6] (Sprague Dawley, rat, plasma, single intravenous injection 1 milligram per kilogram, read-out: Vss) worked out at 0.29 L/kg. Also, the Oral availability in [6] (oral gavage 2 milligrams per kilogram) is 2-3%.

For the compound `O=S(=O)(O)c1cc(N=C=S)ccc1C=Cc1ccc(N=C=S)cc1S(=O)(=O)O` [DIDS, 4,4′-diisothiocyanatostilbene-2,2′-disulfonic acid, reference compound], the “concentration eliciting AID-specific cytotoxicity” value in [7] came out at 150 µM. Further, the cell death entry in data set [8] is given as “induces cell death in primary B-lymphocytes”.

The half-life is the time needed for the level to fall by half in the phase considered. Read a high half-life as slow decline. In general, AUC refers to concentration integrated over time. Low readings indicate low exposure, high ones high exposure.

The values are drawn from patent US10927075B2, “Compositions and methods relating to the treatment of cancer, autoimmune disease, and neurodegenerative disease” (THE JACKSON LABORATORY, priority 2014, dated 2021).
